# In the RepoRT retention time repository (doi:10.1016/j.chroma.2015.11.014):
# Assay: RP, Agilent ZORBAX Eclipse Plus C18, 150 × 2.1 mm, 3.5 µm, 40 °C, 0.3 mL/min, estimated dead time 1.1 min; A: water + 0.1% formic acid; B: acetonitrile + 0.1% formic acid; gradient (min/%B) 0/2 1/2 2/20 16.5/98 22/98
# Details: stereoisomer not certain
row,SMILES,LC retention time [min]
1,OCc1coc(-c2ccccc2)n1,7.56
2,CCCc1nn(C)c2c(=O)[nH]c(-c3cc(S(=O)(=O)N4CCN(C)CC4)ccc3OCC)nc12,7.28
3,Cn1c(=O)c2[nH]cnc2n(C)c1=O,4.94
4,CC(C)C(=O)c1ccc(C(C)C(=O)O)cc1 (centres undefined),10.2
5,COc1ccc2c3c1OC1C(=O)C=CC4C(C2)N(C)CCC314 (centres undefined),5.06
6,Cc1ccccc1NC(=O)NC1CCCCC1,11
7,CC(C)(C)NCC(O)c1cc(O)cc(O)c1 (centres undefined),4.55
8,O=C(CO)Nc1ccccc1,5.9
9,O=C1CC2(CCCCC2)C(=O)N1,7.4
10,NC12CC3CC(CC(C3)C1)C2,5.15
11,NCC(O)COc1ccccc1 (centres undefined),4.75
12,CCOP(=S)(OCC)Oc1ccc([N+](=O)[O-])cc1,14.1
13,CCCCCCCCCCCCCCCC[P+](CCCC)(CCCC)CCCC,16
14,CCOC(=O)c1cncn1C(C)c1ccccc1 (centres undefined),8.83
15,CC12CCC(=O)C=C1CCC1C2CCC2(C)C(O)CCC12 (centres undefined),11
16,CCOCCOC(=O)Nc1ccc(C)c(NC(=O)OCCOCC)c1,9.91
17,COCCOC(=O)Nc1ccc(C)c(NC(=O)OCCOC)c1,8.32
18,COC[P+](c1ccccc1)(c1ccccc1)c1ccccc1,7.5
19,CC(=O)OCC[N+](C)(C)C,2.06
20,Oc1ccccc1-c1nc2ccccc2[nH]1,6.22
21,COC(=O)C(=Cc1ccc(OC)cc1)C(=O)OC,11
22,CCCC[P+](CCCC)(CCCC)CCCC,9.65
23,CCCOP(=O)(OCCC)OCCC,10.9
24,O=C1NS(=O)(=O)c2ccccc21,5.2

row,SMILES,LC retention time [min]
1,CCN(C)C(=O)Oc1cccc(C(C)N(C)C)c1 (centres undefined),6.08
2,NP(=O)(c1ccccc1)c1ccccc1,7.41
3,O=C1c2ccccc2C(=O)C1c1ccccc1,14.2
4,C=CC[N+](CC)(CC)Cc1ccccc1,5.35
5,Cc1cc(NS(=O)(=O)c2ccc(NO)cc2)no1,6.77
6,c1ccc([P+](Cc2ccccn2)(c2ccccc2)c2ccccc2)cc1,8.34
7,CCNC(=O)NC1CCCCC1,7.7
8,Cc1cc(C)c(C(=O)P(=O)(c2ccccc2)c2ccccc2)c(C)c1,14.1
9,CCCCCCCCCCCCCCCC[N+](C)(C)CCCCCCCCCCCCCCCC,18.4
10,CC(C)NCC(O)COc1cccc2ccccc12 (centres undefined),7.36
11,CC12CC3CC(C)(C1)CC(N)(C3)C2,6.65
12,COC(=O)Nc1cccc(N)c1,4.29
13,CC12CCC(=O)C=C1CCC1C2CCC2(C)C1CCC2(C)O (centres undefined),11.6
14,CCC1(c2cccc(O)c2)CCCCN(C)C1 (centres undefined),5.64
15,O=C(O)CC(O)(CC(=O)O)C(=O)O,2.08
16,Cc1ccc(OP(=O)(Oc2ccc(C)cc2)Oc2ccc(C)cc2)cc1,15.9
17,CC(C)c1ccc(NC(=O)N(C)C)cc1,10.3
18,O=C(O)c1c2ccccc2nc2ccccc12,4.66
19,CNC(=C[N+](=O)[O-])NCCSCc1ccc(CN(C)C)o1,4.83
20,COc1ccc2c3c1OC1C(OC(C)=O)C=CC4C(C2)N(C)CCC341 (centres undefined),6.21
21,CC1=CC(=O)NS(=O)(=O)O1,4.12
22,CC(C(=O)O)c1cccc(C(=O)c2ccccc2)c1 (centres undefined),10.9
23,Nc1ncnc2c1ncn2C1OC(CO)C(O)C1O (centres undefined),3.2
24,CCC(C)C(N)C(=O)O (centres undefined),2.36

row,SMILES,LC retention time [min]
1,Cn1cnc2nc[nH]c2c1=N,2.36
2,O=[P+](c1ccccc1)c1ccccc1,8.03
3,CN(C)CCOC(c1ccccc1)c1ccccc1,7.72
4,NC1=NC(O)c2ncn(COCCO)c2N1 (centres undefined),3.12
5,O=S(=O)(O)c1ccc2ccccc2c1,7.09
6,COC12C(COC(N)=O)C3=C(C(=O)C(C)=C(N)C3=O)N1CC1NC12 (centres undefined),5.59
7,CN1C(C(=O)Nc2ccccn2)=C(O)c2ccccc2S1(=O)=O,9.53
8,CC(C)(C)c1cc([N+](=O)[O-])cc([N+](=O)[O-])c1O,13.9
9,CNCC(CC(=O)O)CC(C)C (centres undefined),4.84
10,Oc1ccc(Oc2ccccc2)cc1,11.1
11,CC(C)NCC(O)COc1ccc(CC(=O)O)cc1 (centres undefined),4.89
12,CCCC(=NOCC)C1=C(O)CC(CC(C)SCC)CC1=O (centres undefined),16.1
13,CC12CCC3c4ccc(OS(=O)(=O)O)cc4CCC3C1CCC2=O (centres undefined),11.1
14,CCC(CCC(C)O)COC(=O)c1ccccc1O (centres undefined),12.9
15,CCCCC(CC)COC(=O)C(C#N)=C(c1ccccc1)c1ccccc1 (centres undefined),17.7
16,COCCCOc1cc(CC(CC(N)C(O)CC(C(=O)NCC(C)(C)C(N)=O)C(C)C)C(C)C)ccc1OC (centres undefined),8.2
17,c1ccc(C2CN3CCSC3=N2)cc1 (centres undefined),5.02
18,CCCC[N+](C)(CCCC)CCCC,7.01
19,O=P(Cc1ccccc1)(Cc1ccccc1)Cc1ccccc1,11.6
20,CC(C)(C)NCC(O)COc1nsnc1N1CCOCC1 (centres undefined),5.51
21,O=C1CN(N=Cc2ccc([N+](=O)[O-])o2)C(=O)N1,6.22
22,CCCc1nc(C(C)(C)O)c(C(=O)O)n1Cc1ccc(-c2ccccc2-c2nn[nH]n2)cc1,7.36
23,CC[P+](c1ccccc1)(c1ccccc1)c1ccccc1,7.39
24,CNc1c(C)n(C)n(-c2ccccc2)c1=O,4.82

row,SMILES,LC retention time [min]
1,c1ccc(CNCc2ccccc2)cc1,6
2,CNC(=O)Oc1ccccc1OC(C)C,9.47
3,COc1ccccc1NC(C)=O,7.37
4,CC12CCC3c4ccc(O)cc4CCC3C1CCC2=O (centres undefined),11.2
5,Nc1nc2ccccc2[nH]1,4.79
6,CN(C)C(=N)N=C(N)N,1.52
7,CCCCCCCCCC[N+](C)(C)CCCCCCCCCC,13.4
8,O=S(=O)([O-])CCCC[P+](c1ccccc1)(c1ccccc1)c1ccccc1,7.14
9,CC1(C)CCCC(C)(C)N1,4.82
10,CCCCCCCCCCCCCCCCCC[N+](C)(C)C,14
11,c1ccc2sc(SSN3CCOCC3)nc2c1,13.8
12,CC1(C)OCC2OC3(C(=O)O)OC(C)(C)OC3C2O1 (centres undefined),7.35
13,CC(CN1c2ccccc2Sc2ccccc21)N(C)C (centres undefined),8
14,CN1CC(=O)N2C(Cc3c([nH]c4ccccc34)C2c2ccc3c(c2)OCO3)C1=O (centres undefined),9.8
15,Nc1ccccc1C[P+](c1ccccc1)(c1ccccc1)c1ccccc1,8.43
16,CCC(CC)COC(=O)C(C)NP(=O)(OCC1OC(C#N)(c2ccc3c(N)ncnn23)C(O)C1O)Oc1ccccc1 (centres undefined),9.97
17,O=c1c(O)c(-c2ccc(O)c(O)c2)oc2cc(O)cc(O)c12,8.07
18,Nc1nc(N)c2nc(-c3ccccc3)c(N)nc2n1,5.2
19,CC(O)C(=O)Nc1ccccc1 (centres undefined),6.61
20,CNC(=O)C(=NOC)c1ccccc1COc1cc(C)ccc1C,13.2
21,COC(=O)C1C2CC3c4[nH]c5cc(OC)ccc5c4CCN3CC2CC(OC(=O)c2cc(OC)c(OC)c(OC)c2)C1OC (centres undefined),8.6
22,Nc1cccc2c1CN(C1CCC(=O)NC1=O)C2=O (centres undefined),5.24
23,C#CC1(O)CCC2C3CCC4=CC(=O)CCC4(C)C3CCC21C (centres undefined),11.7
24,CCC1(c2ccccc2)C(=O)NCNC1=O,6.35

row,SMILES,LC retention time [min]
1,CC(C)NCC(O)COc1ccc(CCO)cc1 (centres undefined),5.11
2,O=C(C[P+](c1ccccc1)(c1ccccc1)c1ccccc1)OCc1ccccc1,9.2
3,CC12CCC3c4ccc(OCc5ccccc5)cc4CCC3C1CC(O)C2O (centres undefined),13.3
4,CC(C)NC(=O)NS(=O)(=O)c1cnccc1Nc1cccc(CO)c1,5.82
5,OC(c1ccccc1)(c1ccccc1)C1CCNCC1,6.64
6,O=P(Oc1ccccc1)(Oc1ccccc1)Oc1ccccc1,14.1
7,CCN(CC)CCNC(=O)c1cc(S(C)(=O)=O)ccc1OC,4.86
8,NC(=O)N1c2ccccc2CC(O)c2ccccc21 (centres undefined),7.19
9,COc1cc(Cc2cnc(N)nc2N)cc(OC)c1OC,5.11
10,COc1ccc(OC)cc1,10.1
11,Nc1ccc2c(c1)C(=O)OC21c2ccc(O)cc2Oc2cc(O)ccc21,8.16
12,Cc1cc(OCCOCC[N+](C)(C)Cc2ccccc2)ccc1C(C)(C)CC(C)(C)C,12.3
13,O=c1[nH]c(=O)c2cn[nH]c2[nH]1,2.85
14,CCCCCCCCC=CCCCCCCCC[N+](C)(C)C,13.7
15,CCCCCCCCCCCCN,9.47
16,COc1ccc2c3c1OC1C(=O)C=CC4(O)C(C2)N(C)CCC314 (centres undefined),5.37
17,CC1(C)CC(O)CC(C)(C)N1O,5.7
18,COC1CC(CC2CCC(C)C(C(C)C(=O)O)O2)OC2(OC(C)(C3CCC(C)(C4OC(C5OC(O)(CO)C(C)CC5C)CC4C)O3)CC2C)C1C (centres undefined),21.2
19,Cc1cccc(N(C)C(=S)Oc2ccc3ccccc3c2)c1,15.5
20,O=S(=O)(O)NC1CCCCC1,5.07
21,CC(C)CC[P+](c1ccccc1)(c1ccccc1)c1ccccc1,9.31
22,ON(Cc1ccccc1)Cc1ccccc1,8.96
23,CCCCCCCCCCCCCC(=O)OCC(O)COP(=O)([O-])OCC[N+](C)(C)C (centres undefined),12.7
